Test results published in paper PMC2788677 (Journal of medicinal chemistry, 2009).

What was measured:
MOR [1] = test: Radioligand binding assay, CHO cells stably expressing MOR, [3H]DAMGO; conditions: relative to dermorphin
MOR [2] = conditions: cited from earlier work

For Dermorphin, the “Rel. MOR affinity” value (MOR [1]) is given as 1.0 and the “higher affinity than morphine for MOR” value (MOR [2]) is given as 100 fold.
